Measured values from patent US11903929B2, “Method for inhibiting dengue virus infection” (FLORIDA STATE UNIVERSITY RESEARCH FOUNDATION, INC., priority 2018, dated 2024).
pIC50: −log10 of the molar value. Where two headings read alike, the source gives them in different places. Where a SMILES comes first, the peptide text is derived from it. [ ]: non-standard residue; d: D form. ξ: configuration not given here. ξLac(3-iPr) = CC(C)CC(O)C(=O)O; NMeV = CN[CH](C(=O)O)C(C)C; NMeA = CN[CH](C)C(=O)O; βAla = NCCC(=O)O

Assays:
Zika virus = experiment: Zika viral production assay (infectious viral titer assay on Vero cells); assay type: cell-based; details: read-out: Anti-ZIKV activity IC50; for IC50: μM
dengue virus = experiment: Western blot analysis of viral protein levels in dengue virus-infected cells; assay type: cell-based
Procedure: These 19 compounds were further validated for antiviral activity by a Zika viral production assay and also by analyzing protein production via Western blot in dengue virus-infected cells. Human glioblastoma cells were treated with individual compounds for 1 hour prior to infection with Zika virus or dengue virus for 24 hours. After 24 hours, cellular lysate was harvested for Western blot analysis of viral protein levels (DENV infection), or supernatant collected and used to infect Vero cells in an infectious viral titer assay (ZIKV infection).

[1] = Zika virus, human glioblastoma cells treated 1 hour prior to infection, 24 hours, supernatant titered on Vero cells
[2] = 1 uM, SNB-19 human glioblastoma cells, compound 1 hour prior to infection, 24 hours infection, Western blot of viral protein
[3] = 10 uM, SNB-19 human glioblastoma cells, compound 1 hour prior to infection, 24 hours infection, Western blot of viral protein
[4] = Zika virus, human glioblastoma cells treated 1 hour prior to infection, 24 hours, supernatant titered on Vero cells, values in E-notation, unit inferred

Row | Structure (SMILES) | Anti-DENV Activity at 1 uM (SNB-19 cells) (dengue virus; [2]) | Anti-DENV Activity at 10 uM (SNB-19 cells) (dengue virus; [3]) | pIC50 (Zika virus; [4]) | further results
1 | COCCn1c(=O)[nH]c2cc(C(=O)NCc3ccccc3Cl)ccc2c1=O [NCGC00104879-01, N-(2-chlorobenzyl)-3-(2-methoxyethyl)-2,4-dioxo-1,2,3,4-tetrahydroquinazoline-7-carboxamide] | No | No | – | IC50 (Zika virus; [1]): > 30 µM
2 | COc1cc(C2CC(=O)Nc3cc4c(cc32)OCCO4)cc(Br)c1OC (centres unmarked) [NCGC00107055-01, 9-(3-bromo-4,5-dimethoxyphenyl)-2,3,8,9-tetrahydro-[1,4]dioxino[2,3-g]quinolin-7(6H)-one] | No | No | 7.55 | –
3 | O=c1[nH]c(=O)n(C2C[C@@H](O)[C@@H](CO)O2)cc1F (stereo partly drawn) [NCGC00263862-02, 5-fluoro-l-((4R,5R)-4-hydroxy-5-(hydroxymethyl)tetrahydrofuran-2-yl)pyrimidine-2,4(1H,3H)-dione] | No | No | 7.78 | –
4 | COc1ccccc1-c1nnc2sc(-c3ccc(N(C)C)cc3)nn12 [NCGC00071621-03, 4-(3-(2-methoxyphenyl)-[1,2,4]triazolo[3,4-b][1,3,4]thiadiazol-6-yl)-N,N-dimethylaniline] | – | – | – | pIC50 (Zika virus; Zika virus, Vero): < 4.52; Anti-DENV Activity at 1 uM (SNB-19 cells) (dengue virus; 1 uM): No; Anti-DENV Activity at 10 uM (SNB-19 cells) (dengue virus; 10 uM): No
5 | CC(C)(C)c1ccc(C(=O)Nc2ccc3c(c2)CCCN3C(=O)c2cccs2)cc1 [NCGC00131231-01, 4-(tert-butyl)-N-(1-(thiophene-2-carbonyl)-1,2,3,4-tetrahydroquinolin-6-yl)benzamide] | No | No | 5.12 | –
6 | CC[C@H](C)[C@@H]([C@@H](CC(=O)N1CCC[C@H]1[C@H](OC)[C@@H](C)C(=O)N[C@@H](Cc1ccccc1)c1nccs1)OC)N(C)C(=O)[C@@H](NC(=O)[C@H](C(C)C)N(C)C)C(C)C [NCGC00378623-01, (S)-2-((S)-2-(dimethylamino)-3-methylbutanamido)-N-((3R,4S,5S)-3-methoxy-1-((S)-2-((1R,2R)-1-methoxy-2-methyl-3-oxo-3-(((S)-2-phenyl-1-(thiazol-2-yl)ethyl)amino)propyl)pyrrolidin-1-yl)-5-methyl-1-oxoheptan-4-yl)-N,3-dimethylbutanamide] | No | No | – | –
7 | CCOC(=O)c1ccc(N2C(=O)c3[nH]nc(-c4ccco4)c3C2c2ccc(C)cc2)cc1 (centres unmarked) [NCGC00108581-01, ethyl 4-(3-(furan-2-yl)-6-oxo-4-(p-tolyl)-4,6-dihydropyrrolo[3,4-c]pyrazol-5(1H)-yl)benzoate] | No | Yes | 5.62 | –
8 | CC(=O)OC[C@]12C[C@H](OC(=O)CC(C)C)C(C)=C[C@H]1O[C@@H]1[C@H](O)[C@@H](OC(C)=O)[C@@]2(C)[C@]12CO2 [NCGC00387651-01, (2S,2′R,3′R,4′S,5′S,5a′R,7′S,9a′R)-4′-acetoxy-5a′-(acetoxymethyl)-3′-hydroxy-5′,8′-dimethyl-2′,3′,4′,5′,5a′,6′,7′,9a′-octahydrospiro[oxirane-2,10′-[2,5]methanobenzo[b]oxepin]-7′-yl 3 - methylbutanoate] | – | – | – | Anti-DENV Activity at 1 uM (SNB-19 cells) (dengue virus): Yes; Anti-DENV Activity at 10 uM (SNB-19 cells) (dengue virus): Yes
9 | CC1=Nc2cc(C(=O)NCc3ccccc3Cl)ccc2Sc2c(C)ccc(C)c21 [NCGC00112058-01, N-(2-chlorobenzyl)-1,4,11-trimethyldibenzo[b,f][1,4]thiazepine-8-carboxamide] | No | No | – | IC50 (Zika virus; [1]): > 30 µM
10 | O=c1nc[nH]c2c1ccn2C1OC(CO)C(O)C1O (centres unmarked) [NCGC00246910-02, 7-(3,4-dihydroxy-5-(hydroxymethyl)tetrahydrofuran-2-yl)-1,7-dihydro-4H-pyrrolo[2,3-d]pyrimidin-4-one] | No | Yes | 6.57 | –
11 | CCC(C)C1NC(=O)C2CCCN2C(=O)C(CC(C)C)OC(=O)CCNC(=O)C(C)N(C)C(=O)C(C(C)C)N(C)C1=O (centres unmarked) [NCGC00169957-03, 3-(sec-butyl)-16-isobutyl-6-isopropyl-5,8,9-trimethyldodecahydropyrrolo[1,2-d][l]oxa[4,7,10,13,16] pentaazacyclononadecine-1,4,7,10,14,17(11H,16H)-hexaone] (cyclo([ξLac(3-iPr)]PI[NMeV][NMeA][βAla]); configuration not given here) | – | – | – | pIC50 (Zika virus; Zika virus, Vero): 6.21; Anti-DENV Activity at 1 uM (SNB-19 cells) (dengue virus; 1 uM): No; Anti-DENV Activity at 10 uM (SNB-19 cells) (dengue virus; 10 uM): Yes
12 | CCOC(=O)c1ccc(N2C(=O)c3[nH]nc(-c4ccc(OC)cc4)c3C2c2ccc(C)cc2)cc1 (centres unmarked) [NCGC00108525-01, ethyl 4-(3-(4-methoxyphenyl)-6-oxo-4-(p-tolyl)-4,6-dihydropyrrolo[3,4-c]pyrazol-5(1H)-yl)benzoate] | No | Yes | – | pIC50 (Zika virus; Zika virus, Vero): 6.86
13 | O=C(Nc1cccnc1)c1cccs1 [NCGC00072088-02, N-(pyridin-3-yl)thiophene-2-carboxamide] | No | Yes | 5.63 | –
14 | CCCOc1ccc2nc(NC(=O)OC)[nH]c2c1 [NCGC00018238-09, methyl (6-propoxy-1H-benzo[d]imidazol-2 - yl)carbamate] | No | No | 9.63 | –
15 | O=C1N[C@@H]2C(=C[C@H](O)[C@@H](O)[C@H]2O)c2cc3c(c(O)c21)OCO3 [NCGC00357393-02, (2S,3R,4S,4aR)-2,3,4,7-tetrahydroxy-3,4,4a,5-tetrahydro-[1,3]dioxolo[4,5-j] phenanthridin-6(2H)-one] | – | – | – | pIC50 (Zika virus): 9.17; Anti-DENV Activity at 1 uM (SNB-19 cells) (dengue virus; 1 uM): Yes; Anti-DENV Activity at 10 uM (SNB-19 cells) (dengue virus; 10 uM): Yes
16 | COc1cc2c(c(OC)c1OC)-c1ccc(OC)c(=O)cc1[C@@H](NC(C)=O)CC2 [NCGC00025125-18, N-[(7S)-1,2,3,10-tetramethoxy-9-oxo-6,7-dihydro-5H-benzo[a]heptalen-7-yl]acetamide] | No | No | – | –
17 | CC(=O)OC[C@]12CCC(C)=C[C@H]1O[C@@H]1[C@H](O)[C@@H](OC(C)=O)[C@@]2(C)[C@]12CO2 [NCGC00179895-03, ((2S,2′R,3′R,4′S,5′S,5a′R,9a′R)-4′-acetoxy-3′-hydroxy-5′,8′-dimethyl-2′,3′,4′,5′,7′,9a′-hexahydrospiro[oxirane-2,10′-[2,5]methanobenzo[b]oxepin]-5a′(6′H) - yl)methyl acetate] | – | – | – | Anti-DENV Activity at 1 uM (SNB-19 cells) (dengue virus): Yes; Anti-DENV Activity at 10 uM (SNB-19 cells) (dengue virus): Yes
18 | CCOc1ccc(N2C(=O)c3[nH]nc(-c4cccs4)c3C2c2cccc(F)c2)cc1 (centres unmarked) [NCGC00102779-01, 5-(4-ethoxyphenyl)-4-(3-fluorophenyl)-3-(thiophen-2-yl)-4,5-dihydropyrrolo[3,4-c]pyrazol-6(lH)-one] | No | No | 5.03 | –
19 | COC(=O)c1cc2occc2n1Cc1nc(-c2ccc(C)cc2)oc1C [NCGC00113159-01, methyl 4-[[5-methyl-2-(4-methylphenyl)-1,3-oxazol-4-yl]methyl]furo[3,2-b]pyrrole-5 - carboxylate] | No | No | – | IC50 (Zika virus; [1]): > 30 µM
